The inhibition is the share of the control response that was lost under treatment.

Ends that are not written are not given here.

Experimental findings from article PMC9952520, “Anti-Biofilm Effects of Rationally Designed Peptides against Planktonic Cells and Pre-Formed Biofilm of Pseudomonas aeruginosa” (Antibiotics, 2023) are described below.

Test [1] concerns planktonic P. aeruginosa ATCC 27853. Put plainly: Growth inhibition of planktonic cells in BHI. The test is classed as cell-based, Pseudomonas aeruginosa. The settings on record: BHI broth, 24 h at 37 °C, OD600. On the procedure: (§1) To investigate the growth inhibition of peptides and antibiotics against planktonic P. aeruginosa cells, a microdilution assay was applied. […] After 24 h incubation at 37 °C with agitation, the growth inhibition was calculated by the absorbance measurement of bacterial turbidity at 600 nm using a Microplate Reader (SpectraMax M5, Molecular Devices, Sunnyvale, CA, USA). The assay was performed in triplicate. The percentage of […] was calculated as follows:Growth inhibition (%) = 100 − ((OD600 in sample treatment − OD600 in untreated bacteria)/(OD600 in untreated sample − OD600 in untreated bacteria) × 100) Sample treatment: adding peptides or antibiotics in bacterial suspensions; untreated bacteria: culture medium without bacteria and samples; untreated sample: bacterial suspension without samples.

Test [2] relates to planktonic DRPa 4007. The test can be described thus: Growth inhibition of planktonic cells in BHI. The test is classed as cell-based, Pseudomonas aeruginosa. The settings on record: BHI broth, 24 h at 37 °C, OD600. On the procedure:
as §1

Test [3] relates to Drug-Sensitive P. aeruginosa (ATCC 27853). Put plainly: microbe, parasite or virus in culture. The test is classed as cell-based, Pseudomonas aeruginosa. To be noted: microdilution, 10 mM sodium phosphate pH 7.2 + 20% MH broth, 24 h at 37 °C, turbidity OD600, triplicate. The procedure: (§2) Pseudomonas aeruginosa ATCC 27853 (drug-sensitive strain) was obtained from the American Type Culture Collection and drug-resistant P. aeruginosa (DRPa)-3904, 4830, 4891, 4007, and 5018 were isolated from patients with otitis media in a hospital. DRPa strains were obtained from GC Lab (Yongin-Si, Gyeonggi-do, Korea) for identification and antibiotic susceptibility testing. All strains were grown in a Mueller–Hinton (MH) broth containing 0.5% NaCl under an aerobic condition at 37 °C.
(§3) Pregrown bacteria were suspended in 10 mM sodium phosphate (SP, pH 7.2) supplemented with 20% MH broth. Evaluation of antibacterial effects in variable ionic strengths was performed with the following buffers: 10 mM HEPES, 10 mM NaCl, pH 7.4 + 10% MH (buffer I), 10 mM HEPES, 150 mM NaCl, pH 7.4 + 10% MH (buffer II), 10 mM HEPES, 5 mM MgCl2, pH 7.4 + 10% MH (buffer III), and 10 mM HEPES, 150 mM NaCl, 5 mM MgCl2, pH 7.4 + 10% MH (buffer IV). Fifty µL of the cell suspension (1 × 10^6 colony forming unit (CFU)/mL) was added to fifty µL of two-fold serially diluted peptide solutions and antibiotics (0.125–256 µM), followed by incubation for 24 h at 37 °C. The positive growth control was bacterial suspension without peptides and antibiotics and the negative control was only medium. MICs were evaluated by measuring the turbidity of cell solutions at OD600 and were defined as the lowest concentration of peptide or antibiotics that inhibited visible bacterial growth. The assays were performed in triplicate.
Background: In broth dilution the organism is exposed to a series of concentrations in liquid medium.

For test [4], the system named is P. aeruginosa DRPa 4007 biofilm. The test can be described thus: SEM analysis of biofilm on plastic coverslips. The class given is cell-based, Pseudomonas aeruginosa. The settings on record: peptides 64 µM, ciprofloxacin 256 µM, 24 h on 48 h biofilm. On the procedure: Figure 6 Image analysis of P. aeruginosa DRPa 4007 using scanning electron microscopy (SEM).
DRPa 4007 biofilms were formed on the plastic coverslips (12 mm dimension, SPL life science, Pocheon-si, Korea) for 48 h in BHI broth containing 2% (w/v) sucrose (1 × 10^8 CFU/mL) in a 24-well plate. […] The coverslips were rinsed using SP buffer and prefixed in 50 mM HEPES buffer (pH 8.0) containing 5% (v/v) glutaraldehyde for 2 h. After washing with SP buffer, they were dehydrated using the OTTIX shaper (Diapath S.p.A, Bergamo, Italy) and chemical-dried using hexamethyldisilazane. The coverslips coated with gold were observed under a field emission scanning electron microscopy (JSM-7100F, JEOL Ltd., Tokyo, Japan).

In test [5] the test system is DRPa 4007 biofilm. The test can be described thus: Inhibition of biofilm formation, crystal violet staining. The settings on record: Pseudomonas aeruginosa, BHI + 2% sucrose, 24 h at 37 °C, crystal violet OD570, triplicate. The class given is cell-based. On the procedure:
(§4) Sucrose was added to enhance bacterial biofilm formation. Unattached bacteria were removed by washing with SP buffer and the remaining biofilm was fixed with methanol for 15 min. After air-drying for 30 min at room temperature, the plate was stained with 0.1% crystal violet (CV) for 5 min, followed by carefully washing with water and adding 95% ethanol to each well. The absorbance of the plate at 570 nm was measured using a Microplate Reader. The experiment was performed in triplicate and the percentage of biofilm inhibition was calculated as follows:Biofilm inhibition (%) = 100 − ((OD570 in sample treatment − OD570 in untreated bacteria)/(OD570 in untreated sample − OD570 in untreated bacteria) × 100) Sample treatment: adding peptides or antibiotics in bacterial suspensions; untreated bacteria: culture medium without bacteria and samples; untreated sample: bacterial suspension without samples.

Test [6] concerns Drug-Resistant P. aeruginosa (DRPa) 3904. Put plainly: microbe, parasite or virus in culture. The test is classed as cell-based, Pseudomonas aeruginosa. The settings on record: microdilution, 10 mM sodium phosphate pH 7.2 + 20% MH broth, 24 h at 37 °C, OD600, triplicate. The procedure:
as §2, §3

Test [7] relates to Drug-Resistant P. aeruginosa (DRPa) 4891. The test can be described thus: microbe, parasite or virus in culture. The settings on record: microdilution, 10 mM sodium phosphate pH 7.2 + 20% MH broth, 24 h at 37 °C, OD600, triplicate. The class given is cell-based, Pseudomonas aeruginosa. The procedure: as §2, §3
In test [8] the test system is Drug-Resistant P. aeruginosa (DRPa) 5018. The test can be described thus: microbe, parasite or virus in culture. The class given is cell-based, Pseudomonas aeruginosa. The settings on record: microdilution, 10 mM sodium phosphate pH 7.2 + 20% MH broth, 24 h at 37 °C, OD600, triplicate. On the procedure:
as §2, §3

Test [9] deals with Drug-Resistant P. aeruginosa (DRPa) 4830. Put plainly: microbe, parasite or virus in culture. The class given is cell-based, Pseudomonas aeruginosa. The settings on record: microdilution, 10 mM sodium phosphate pH 7.2 + 20% MH broth, 24 h at 37 °C, OD600, triplicate. On the procedure: as §2, §3
For test [10], the system named is Drug-Resistant P. aeruginosa (DRPa) 4007. Put plainly: microbe, parasite or virus in culture. The class given is cell-based, Pseudomonas aeruginosa. The settings on record: microdilution, 10 mM sodium phosphate pH 7.2 + 20% MH broth, 24 h at 37 °C, OD600, triplicate. On the procedure:
as §2, §3

For test [11], the system named is P. aeruginosa ATCC 27853 biofilm. The test can be described thus: Inhibition of biofilm formation, crystal violet staining. The test is classed as cell-based, Pseudomonas aeruginosa. The settings on record: BHI + 2% sucrose, 24 h at 37 °C, crystal violet OD570. The procedure:
as §4

Test [12] concerns Biofilm EPS of P. aeruginosa DRPa 4007. Put plainly: Reduction of biofilm EPS components, fluorescent dyes and fluorescence microscopy. The test is classed as cell-based, Pseudomonas aeruginosa. The settings on record: 64 µM, 24 h incubation; FITC-ConA, Nile red, DAPI, SYPRO red. The procedure: Figure 4 Eliminative action of peptides in biofilm extracellular polymeric substances (EPS). Biofilm EPS of P. aeruginosa DRPa 4007 in the absence or presence of peptides (64 µM) was stained by FITC-ConA for carbohydrates, Nile red for lipids, DAPI for nucleic acids, and SYPRO red for proteins and observed under fluorescence microscopy.
To investigate the eliminating ability of peptide, EPS components were analyzed using fluorescence microplate and microscopic analyses. After following the processes described in Section 3.7, the biofilm was washed with SP buffer and stained using four fluorescent dyes (DAPI for nucleic acids, Nile red for lipids, FITC-ConA for carbohydrates, and SYPRO red for proteins).

The mark [13] stands for this setting: Pseudomonas aeruginosa, ATCC27853.

Regarding `CC(C)(O/N=C(\C(=O)N[C@@H]1C(=O)N2C(C(=O)[O-])=C(C[n+]3ccccc3)CS[C@H]12)c1csc(N)n1)C(=O)O` [Ceftazidime], the “growth inhibition of planktonic cells” value in [1] is “at very low concentrations”. Moreover, the “antibacterial activity against planktonic cells” value in test [2] is reported as “remarkably inhibited”. In addition, the MIC in test [3] (setting [13]) was found to be 1 µM.
Consider `O=C(O)c1cn(C2CC2)c2cc(N3CCNCC3)c(F)cc2c1=O` [Ciprofloxacin], for which the “biofilm and bacteria on coverslip under SEM” value in test [4] is “massive volume”. For the same compound, the “growth inhibition of planktonic cells” value in [1] is listed as “at very low concentrations”. Moreover, the “antibacterial activity against planktonic cells” value in test [2] was “remarkably inhibited”. In test [5], the inhibition at 64 µM stood at 2.3%. The MIC was greater than 256 µM in test [6] (Pseudomonas aeruginosa); greater than 256 µM in test [7] (Pseudomonas aeruginosa); greater than 256 µM in test [8] (Pseudomonas aeruginosa); 1 µM in test [3] (setting [13]); 64 µM in test [9] (Pseudomonas aeruginosa); greater than 256 µM in [10] (Pseudomonas aeruginosa). Further, in test [11], the “inhibition of biofilm formation” value was “dose-dependent manner”.
Take `CC[C@H](C)[C@H](NC(=O)CN)C(=O)NCC(=O)N[C@@H](C)C(=O)N[C@H](C(=O)N[C@@H](CC(C)C)C(=O)N[C@@H](CCCCN)C(=O)N[C@H](C(=O)N[C@@H](CC(C)C)C(=O)N[C@H](C(=O)N[C@H](C(=O)NCC(=O)N[C@@H](CC(C)C)C(=O)N1CCC[C@H]1C(=O)N[C@@H](C)C(=O)N[C@@H](CC(C)C)C(=O)N[C@H](C(=O)N[C@@H](CO)C(=O)N[C@@H](Cc1c[nH]c2ccccc12)C(=O)N[C@H](C(=O)N[C@@H](CCCCN)C(=O)N[C@@H](CCCNC(=N)N)C(=O)N[C@@H](CCCCN)C(=O)N[C@@H](CCCNC(=N)N)C(=O)N[C@@H](CCC(N)=O)C(=O)N[C@@H](CCC(N)=O)C(N)=O)[C@@H](C)CC)[C@@H](C)CC)[C@@H](C)O)[C@@H](C)O)C(C)C)C(C)C` [Melittin]: the “removal of EPS components (carbohydrates, lipids, DNA, proteins)” value in test [12] is given as “did not remove carbohydrates”. The MIC in test [6] is given as 2 µM; in test [7], 4 µM; in test [8], 4 µM; in test [3] it was 2 µM; in test [9], 4 µM; in test [10] it was 4 µM.
With `NC[C@H]1O[C@H](O[C@H]2[C@H](O)[C@@H](O[C@H]3O[C@H](CO)[C@@H](O)[C@H](N)[C@H]3O)[C@H](N)C[C@@H]2N)[C@H](N)C[C@@H]1O` [Tobramycin], in [3] (setting [13]), the MIC worked out at 0.25 µM.
Take `Cc1onc(-c2ccccc2)c1C(=O)N[C@@H]1C(=O)N2[C@@H]1SC(C)(C)[C@@H]2C(=O)O` [oxacillin]: the inhibition at 64 µM in test [5] came to 3.4%. The “inhibition of biofilm formation” value in test [11] is reported as “dose-dependent manner”.
For the compound KKIIKKIIKKIWKW-NH2 [KIW-14], the MIC in [9] and in test [10] was 2 µM each time.
For KKIIKKIWKW-NH2 [KIW-10], the MIC in [9] and in test [10] was 16 µM in each case.
As for KKIWKKWIKI-NH2 [KWI-10], the MIC in [9] and in [10] was 8 µM each time.
On to KKIWKKWIKKIIKI-NH2 [KWI-14], for which the MIC in test [9] was determined as 2 µM; in test [10], 1 µM.
RRIIRRIWRW-NH2 [RIW-10]: the MIC in [9] came to 16 µM; in test [10], 8 µM.
As to RRIWRRWIRI-NH2 [RWI-10], the MIC in test [9] turned out to be 4 µM; in [10] it was 8 µM.
The matching figures for WIKKIWKKIIKEIK-NH2 [WIKE-14]: 8 µM and 8 µM.
With WIKKIWKKIIKKIK-NH2 [WIK-14], the MIC is reported as 2 µM in [9] and 1 µM in test [10].
The matching figures for WIKKIWKKIK-NH2 [WIK-10]: 8 µM and 8 µM.
On to WIRRIWRRIR-NH2 [WIR-10], for which the MIC is given as 4 µM in test [9] and 2 µM in test [10].
